The source made the active and inactive calls. Where only a bound is given, the exact number is not on record here.

Assay [1] addresses T1, Mannose-6-phosphate isomerase (Homo sapiens, UniProt P34949).
T1 sequence (P34949 whole entry): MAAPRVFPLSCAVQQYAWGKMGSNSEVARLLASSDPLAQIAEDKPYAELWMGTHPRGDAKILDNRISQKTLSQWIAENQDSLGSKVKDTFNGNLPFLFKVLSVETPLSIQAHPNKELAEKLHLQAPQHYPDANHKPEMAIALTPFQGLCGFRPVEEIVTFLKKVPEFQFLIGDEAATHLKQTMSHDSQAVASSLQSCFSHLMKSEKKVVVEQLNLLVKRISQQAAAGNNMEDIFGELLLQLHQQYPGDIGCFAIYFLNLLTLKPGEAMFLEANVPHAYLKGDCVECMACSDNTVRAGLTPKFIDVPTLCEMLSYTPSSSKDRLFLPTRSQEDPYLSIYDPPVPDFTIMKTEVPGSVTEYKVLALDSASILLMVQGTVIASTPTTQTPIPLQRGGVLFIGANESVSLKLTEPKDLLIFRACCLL
As to the kind of experiment: inhibitors of human PMI, primary screen, biochemical, fluorescence intensity, coupled assay (AID 1209).

The nature of assay [2]: A cytotoxicity screen of small molecule inhibitors of the PhoP region in Salmonella typhi identified in the primary screen. [Related pubchem assays: 1850, 1864, 1985 ]. Format: functional.
The target of assay [3] is T2, Peroxisome proliferator-activated receptor gamma/Nuclear receptor coactivator 2 (Homo sapiens, UniProt P37231). The format is functional.
In assay [4] the target is T3, Peroxisome proliferator-activated receptor gamma/Nuclear receptor coactivator 1 (Homo sapiens, UniProt P37231). The format is functional.
For assay [5], the target named is T4, Peroxisome proliferator-activated receptor gamma/Nuclear receptor coactivator 3 (Homo sapiens, UniProt P37231). Format: functional.
A short description of assay [6]: Luminescence Cell-Based Dose Retest to Confirm Inhibitors of Cancer Stem Cells. [Related pubchem assays (depositor defined):AID2717, AID2721]. The format is functional. As to conditions: Homo sapiens.
Assay [7] in a line: cytotoxicity in HEK-293T cells, dose response, cytotoxicity control for TCR NF-kB inhibitor project, luminescence, T-cell screen hits (AID 489026).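 Note: cells exposed to compound about 14 hours before the viability readout.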 Format: functional, cell-based.
The test system of assay [8] is HEK293. In words: cells. Particulars: Homo sapiens.
Assay [9] deals with HEK293. In words: cells. Particulars: Homo sapiens. This is another data set of the same source.
Another assay addresses T5, Protein Tat (Human immunodeficiency virus type 1 group M subtype B (isolate HXB2)(HIV-1), UniProt P04608).
T5 sequence (P04608 whole entry): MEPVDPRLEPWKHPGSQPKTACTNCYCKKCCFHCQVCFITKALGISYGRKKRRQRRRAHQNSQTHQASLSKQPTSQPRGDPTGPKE
The format is functional.

Assay [10] is described as follows: THP-1 cell cytotoxicity, dose response, cytotoxicity control for Vif-APOBEC3G degradation inhibitor project, THP-1 cells (AID 1117359). Format: functional. As to conditions: Human immunodeficiency virus 1, THP-1.
Assay [11] concerns the target T3, Peroxisome proliferator-activated receptor gamma/Nuclear receptor coactivator 1. As to the kind of experiment: TR-FRET dose response biochemical High Throughput Screening assay for agonists of the steroid receptor coactivator 1 (SRC-1) recruitment by the peroxisome proliferator-activated receptor gamma (PPAR gamma): non-selective agonists. [Related pubchem assays (depositor defined):AID1300, AID1808, AID504735, AID631]. The format is protein assay. A general note: TR-FRET usually uses a lanthanide donor and a delayed reading to cut background.

Assay [12] deals with T4, Peroxisome proliferator-activated receptor gamma/Nuclear receptor coactivator 3. In words: TR-FRET dose response biochemical High Throughput Screening assay for agonists of the steroid receptor coactivator 3 (SRC-3) recruitment by the peroxisome proliferator-activated receptor gamma (PPAR gamma): non-selective agonists. [Related pubchem assays: 1301 (Confirmation screen.), 1048 (Primary screen.)]. The format is functional.

Assay [13] has as its target T2, Peroxisome proliferator-activated receptor gamma/Nuclear receptor coactivator 2. As to the kind of experiment: TR-FRET dose response biochemical High Throughput Screening assay for agonists of the steroid receptor coactivator 2 (SRC-2) recruitment by the peroxisome proliferator-activated receptor gamma (PPAR gamma): non-selective agonists. [Related pubchem assays: 1297, 1032 ]. The format is functional.

The target of a further assay is Estrogen receptor beta (Homo sapiens, UniProt Q92731).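 Note: recombinant ER-beta bound to coactivator SRC1 peptide in presence of estradiol agonist; inhibitors block coactivator peptide binding and lower the FRET signal.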
A further assay concerns the target Cytochrome P450 2D6 (Homo sapiens, UniProt P10635).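 Note: CYP2D6 member of a cytochrome P450 panel assay.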
Another assay deals with T6, Cytochrome P450 1A2 (Homo sapiens, UniProt P05177).
T6 sequence (P05177 whole entry): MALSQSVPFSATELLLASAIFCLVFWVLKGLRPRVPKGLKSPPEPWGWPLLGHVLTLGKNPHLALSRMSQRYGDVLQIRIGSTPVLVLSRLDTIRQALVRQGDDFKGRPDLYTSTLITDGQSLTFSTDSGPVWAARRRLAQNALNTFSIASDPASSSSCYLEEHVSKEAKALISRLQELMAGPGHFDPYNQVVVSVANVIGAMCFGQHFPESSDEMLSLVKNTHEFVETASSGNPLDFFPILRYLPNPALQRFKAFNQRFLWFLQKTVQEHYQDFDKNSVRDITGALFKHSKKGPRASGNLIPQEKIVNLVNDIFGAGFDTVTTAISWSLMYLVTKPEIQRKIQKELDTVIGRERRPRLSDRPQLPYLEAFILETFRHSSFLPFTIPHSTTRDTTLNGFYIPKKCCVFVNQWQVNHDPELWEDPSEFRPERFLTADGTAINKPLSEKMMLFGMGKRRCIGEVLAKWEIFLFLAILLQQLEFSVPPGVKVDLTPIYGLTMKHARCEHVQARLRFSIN

The next assay concerns the target Paired box protein Pax-8 (Homo sapiens, UniProt Q06710). As to the kind of experiment: inhibitors of PAX8-driven TPO luciferase reporter, dose response, RMG-I cells, cherry-pick (AID 687027).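 Note: luciferase reporter driven by Pax8 target thyroperoxidase promoter measured by SteadyGlo luminescence.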 Format: functional, cell-based.
The nature of assay [14]: NIH:OVCAR-3 ovarian cancer cell cytotoxicity, dose response, PAX8 inhibitor project, plate reader, dry powder samples (AID 743044). The format is functional, cell-based.
Assay [15] addresses T7, Rac GTPase-activating protein 1 (Homo sapiens, UniProt Q9H0H5).
T7 sequence (Q9H0H5 whole entry): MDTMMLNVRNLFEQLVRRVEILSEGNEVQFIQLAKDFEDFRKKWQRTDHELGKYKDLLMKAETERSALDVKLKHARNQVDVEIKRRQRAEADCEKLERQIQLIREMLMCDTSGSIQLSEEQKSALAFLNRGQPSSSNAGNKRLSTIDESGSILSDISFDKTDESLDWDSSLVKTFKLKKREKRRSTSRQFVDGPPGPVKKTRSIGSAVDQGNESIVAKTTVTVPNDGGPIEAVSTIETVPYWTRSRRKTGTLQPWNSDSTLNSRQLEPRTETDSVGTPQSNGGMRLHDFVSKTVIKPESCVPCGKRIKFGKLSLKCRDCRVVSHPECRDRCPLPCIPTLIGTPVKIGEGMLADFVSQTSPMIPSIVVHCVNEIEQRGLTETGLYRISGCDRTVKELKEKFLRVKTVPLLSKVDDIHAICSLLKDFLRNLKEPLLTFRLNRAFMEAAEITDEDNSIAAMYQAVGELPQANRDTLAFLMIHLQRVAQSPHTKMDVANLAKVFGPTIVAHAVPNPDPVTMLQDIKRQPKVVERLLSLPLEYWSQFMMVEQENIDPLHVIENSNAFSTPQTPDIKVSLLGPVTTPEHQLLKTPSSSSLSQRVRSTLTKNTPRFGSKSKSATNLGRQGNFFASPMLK
As to the kind of experiment: MgcRacGAP GTPase-activating activity inhibitors, confirmation, biochemical, ADP Hunter fluorescence, primary and confirmatory (AID 624330). The format is functional.

T4 sequence (P37231 whole entry): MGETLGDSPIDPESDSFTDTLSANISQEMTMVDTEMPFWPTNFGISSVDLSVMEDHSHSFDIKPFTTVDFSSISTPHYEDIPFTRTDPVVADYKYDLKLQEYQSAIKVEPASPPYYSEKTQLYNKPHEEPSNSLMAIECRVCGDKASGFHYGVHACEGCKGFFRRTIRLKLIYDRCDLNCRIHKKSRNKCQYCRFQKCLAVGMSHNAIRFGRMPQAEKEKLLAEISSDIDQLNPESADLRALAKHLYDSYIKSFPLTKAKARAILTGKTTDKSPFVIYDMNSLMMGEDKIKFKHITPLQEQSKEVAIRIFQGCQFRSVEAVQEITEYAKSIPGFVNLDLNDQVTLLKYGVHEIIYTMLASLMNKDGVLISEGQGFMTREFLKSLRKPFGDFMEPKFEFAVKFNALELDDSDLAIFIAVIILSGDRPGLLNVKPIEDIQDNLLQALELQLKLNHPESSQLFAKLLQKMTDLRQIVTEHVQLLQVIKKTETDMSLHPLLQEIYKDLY
T4 sequence (Q9Y6Q9 whole entry, further chain): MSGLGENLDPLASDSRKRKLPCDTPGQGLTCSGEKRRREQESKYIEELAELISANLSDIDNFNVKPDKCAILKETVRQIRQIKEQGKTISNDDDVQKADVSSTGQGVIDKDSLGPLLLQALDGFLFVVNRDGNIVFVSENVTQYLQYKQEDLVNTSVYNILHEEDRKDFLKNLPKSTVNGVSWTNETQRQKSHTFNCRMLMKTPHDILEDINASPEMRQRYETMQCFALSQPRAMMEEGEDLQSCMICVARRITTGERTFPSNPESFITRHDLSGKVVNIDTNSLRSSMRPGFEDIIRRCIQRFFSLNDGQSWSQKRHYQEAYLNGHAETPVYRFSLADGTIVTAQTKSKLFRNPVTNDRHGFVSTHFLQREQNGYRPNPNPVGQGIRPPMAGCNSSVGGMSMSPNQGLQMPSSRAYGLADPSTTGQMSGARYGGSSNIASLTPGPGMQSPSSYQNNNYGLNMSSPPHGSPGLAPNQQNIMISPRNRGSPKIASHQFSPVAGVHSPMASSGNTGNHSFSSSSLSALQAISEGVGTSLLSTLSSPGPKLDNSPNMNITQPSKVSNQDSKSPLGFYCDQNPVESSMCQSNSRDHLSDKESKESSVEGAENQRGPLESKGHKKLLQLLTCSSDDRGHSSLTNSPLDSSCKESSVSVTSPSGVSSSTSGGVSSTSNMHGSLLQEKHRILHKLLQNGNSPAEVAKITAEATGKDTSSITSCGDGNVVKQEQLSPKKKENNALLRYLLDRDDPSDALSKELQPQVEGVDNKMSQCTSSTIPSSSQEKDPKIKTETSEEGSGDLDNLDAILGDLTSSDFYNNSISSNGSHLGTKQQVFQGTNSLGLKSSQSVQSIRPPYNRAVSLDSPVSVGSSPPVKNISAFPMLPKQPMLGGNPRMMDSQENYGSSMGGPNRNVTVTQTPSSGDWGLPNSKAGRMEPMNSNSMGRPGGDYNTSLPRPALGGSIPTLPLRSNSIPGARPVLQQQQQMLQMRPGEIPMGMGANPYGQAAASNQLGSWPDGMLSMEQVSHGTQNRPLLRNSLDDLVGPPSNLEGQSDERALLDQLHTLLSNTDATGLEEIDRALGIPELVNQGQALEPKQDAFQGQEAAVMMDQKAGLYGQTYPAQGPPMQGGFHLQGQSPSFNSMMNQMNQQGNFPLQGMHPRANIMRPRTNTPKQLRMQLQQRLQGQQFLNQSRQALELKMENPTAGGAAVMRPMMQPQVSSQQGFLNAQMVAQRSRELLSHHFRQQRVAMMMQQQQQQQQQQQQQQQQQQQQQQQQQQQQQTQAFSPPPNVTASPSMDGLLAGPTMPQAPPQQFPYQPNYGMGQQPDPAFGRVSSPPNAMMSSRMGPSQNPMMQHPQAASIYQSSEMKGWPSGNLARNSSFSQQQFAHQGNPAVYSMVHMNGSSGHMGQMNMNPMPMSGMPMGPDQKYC
T3 sequence (P37231 whole entry): as the sequence (P37231 whole entry) above
T3 sequence (Q15788 whole entry, further chain): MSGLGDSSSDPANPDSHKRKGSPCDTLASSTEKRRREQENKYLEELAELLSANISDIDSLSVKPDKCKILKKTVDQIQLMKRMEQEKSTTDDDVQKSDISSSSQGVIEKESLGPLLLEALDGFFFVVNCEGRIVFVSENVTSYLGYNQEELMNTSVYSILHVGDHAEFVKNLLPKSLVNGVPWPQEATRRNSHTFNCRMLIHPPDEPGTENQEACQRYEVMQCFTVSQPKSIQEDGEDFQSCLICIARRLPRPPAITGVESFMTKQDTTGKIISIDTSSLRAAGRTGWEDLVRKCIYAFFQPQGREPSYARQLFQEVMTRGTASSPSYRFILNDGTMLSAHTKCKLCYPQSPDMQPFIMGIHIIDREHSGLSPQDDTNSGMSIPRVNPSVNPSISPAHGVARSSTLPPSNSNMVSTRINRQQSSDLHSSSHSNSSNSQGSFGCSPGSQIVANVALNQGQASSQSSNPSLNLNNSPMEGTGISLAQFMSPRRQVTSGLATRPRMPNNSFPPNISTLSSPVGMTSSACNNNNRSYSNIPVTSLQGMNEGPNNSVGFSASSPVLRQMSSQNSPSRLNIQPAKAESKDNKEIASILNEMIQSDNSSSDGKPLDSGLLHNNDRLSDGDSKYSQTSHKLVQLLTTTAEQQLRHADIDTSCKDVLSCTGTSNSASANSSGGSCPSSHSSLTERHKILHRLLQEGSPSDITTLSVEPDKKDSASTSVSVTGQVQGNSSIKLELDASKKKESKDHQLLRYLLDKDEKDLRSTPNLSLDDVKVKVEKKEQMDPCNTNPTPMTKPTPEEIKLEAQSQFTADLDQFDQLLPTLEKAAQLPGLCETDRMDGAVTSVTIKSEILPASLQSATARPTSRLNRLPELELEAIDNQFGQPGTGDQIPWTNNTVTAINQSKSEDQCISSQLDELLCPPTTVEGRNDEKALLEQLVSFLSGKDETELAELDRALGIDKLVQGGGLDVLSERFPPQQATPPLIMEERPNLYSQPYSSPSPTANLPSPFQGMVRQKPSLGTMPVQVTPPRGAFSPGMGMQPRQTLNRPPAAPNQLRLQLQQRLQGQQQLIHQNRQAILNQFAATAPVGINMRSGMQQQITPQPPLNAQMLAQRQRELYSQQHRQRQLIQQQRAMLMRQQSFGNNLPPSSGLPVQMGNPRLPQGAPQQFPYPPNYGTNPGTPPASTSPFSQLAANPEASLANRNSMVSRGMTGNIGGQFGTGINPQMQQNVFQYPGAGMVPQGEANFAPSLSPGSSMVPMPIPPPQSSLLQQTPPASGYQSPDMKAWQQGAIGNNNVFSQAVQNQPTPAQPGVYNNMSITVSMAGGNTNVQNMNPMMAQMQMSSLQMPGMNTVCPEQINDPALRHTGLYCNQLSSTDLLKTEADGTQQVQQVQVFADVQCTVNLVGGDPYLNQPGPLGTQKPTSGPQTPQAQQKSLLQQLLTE
Chain of Estrogen receptor beta (Q92731 whole entry): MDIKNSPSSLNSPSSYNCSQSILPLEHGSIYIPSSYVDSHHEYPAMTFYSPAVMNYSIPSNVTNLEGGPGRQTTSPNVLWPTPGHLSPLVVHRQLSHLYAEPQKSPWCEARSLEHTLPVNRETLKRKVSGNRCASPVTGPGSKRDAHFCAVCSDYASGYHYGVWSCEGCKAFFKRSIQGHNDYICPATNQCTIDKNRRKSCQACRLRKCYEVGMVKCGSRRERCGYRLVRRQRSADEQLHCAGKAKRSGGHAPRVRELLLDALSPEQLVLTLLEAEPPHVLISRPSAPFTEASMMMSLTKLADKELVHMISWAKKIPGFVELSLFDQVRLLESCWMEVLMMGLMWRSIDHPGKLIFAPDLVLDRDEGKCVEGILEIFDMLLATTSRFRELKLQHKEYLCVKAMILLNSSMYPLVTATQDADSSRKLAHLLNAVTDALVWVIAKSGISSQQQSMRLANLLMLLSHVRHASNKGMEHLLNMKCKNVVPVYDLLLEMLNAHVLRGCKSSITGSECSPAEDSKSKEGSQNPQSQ
Chain of Paired box protein Pax-8 (Q06710 whole entry): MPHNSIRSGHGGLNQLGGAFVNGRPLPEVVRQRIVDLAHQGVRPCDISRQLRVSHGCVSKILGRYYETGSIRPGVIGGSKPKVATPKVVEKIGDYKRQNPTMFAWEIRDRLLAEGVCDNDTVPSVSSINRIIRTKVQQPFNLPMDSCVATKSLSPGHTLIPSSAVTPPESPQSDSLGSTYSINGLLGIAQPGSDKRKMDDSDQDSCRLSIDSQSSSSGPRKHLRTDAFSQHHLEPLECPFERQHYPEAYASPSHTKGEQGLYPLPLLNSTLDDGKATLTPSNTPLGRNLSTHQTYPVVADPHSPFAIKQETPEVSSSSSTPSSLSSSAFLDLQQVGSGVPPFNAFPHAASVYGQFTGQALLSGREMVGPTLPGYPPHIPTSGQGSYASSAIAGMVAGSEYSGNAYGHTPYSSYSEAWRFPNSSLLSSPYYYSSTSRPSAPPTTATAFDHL

With `COc1ccccc1CSc1nc(-c2ccc([N+](=O)[O-])cc2)c[nH]1`, the IC50 in [1] is listed as > 50 µM (not active).
With `COc1ccc(CNCC(O)COc2ccc(C)cc2[N+](=O)[O-])cc1` (centres undefined), the EC50 in assay [2] is > 50 µM (active).
In the case of `COc1ccc(-c2noc(-c3ccc(Br)o3)n2)cc1OC`, the EC50 was 63 µM (not active) in assay [3], 64.1 µM (not active) in [4] and 68.6 µM (not active) in assay [5].
`COc1ccc([N+](=O)[O-])cc1Nc1c2ccccc2nc2ccccc12`: the AC50 in [6] was 0.956 µM (active). Further, in [7], the IC50 was > 80 µM (inactive). The EC50 in the assay on HEK293 [8] and in the assay with HEK293 [9] was > 59.6 µM (inactive) each time.
With `Cc1cc(C)cc(NCc2cc3c(cc2[N+](=O)[O-])OCO3)c1`, the concentration for half-maximal inhibition (IC50) at Protein Tat is > 100 µM (inconclusive). Moreover, the CC50 in assay [10] was > 40 µM (active).
As for `CCCC(=O)Nc1nc(C)c(C(C)=O)s1`, the EC50 in assay [11] was > 79.4 µM (inactive); in [12] it was > 79.4 µM (not active); in assay [13], 137 µM (not active).
As to `Cc1ccc(C)c(Cn2c(=O)n(-c3ccc(CC(=O)NCc4ccco4)cc3)c(=O)c3sccc32)c1`, the IC50 on Estrogen receptor beta is > 50 µM (not active).
As to `Cc1ccc(C2=NN=C(NC(=O)C(F)(F)F)SC2)cc1`, in [1], the IC50 is > 50 µM (not active).
As for `Cc1ccc(-c2ccc(/C=C(\C#N)C(N)=S)o2)c([N+](=O)[O-])c1`, the EC50 in [3], in [4] and in [5] was > 79.4 µM (not active) each time.
For the molecule `Cc1ccc2nc(SCC(=O)NCc3cccs3)c(C#N)cc2c1`, the figures for the EC50 in [3], in [4] and in assay [5] were 11.6 µM (not active), 19 µM (not active) and 20.8 µM (not active), respectively. The concentration at half-maximal activity (AC50) at Cytochrome P450 2D6 was 0.316 µM (inconclusive); at Cytochrome P450 1A2, 0.708 µM (inconclusive).
With `COc1ccc(N2C(=O)CC(N3CC=C(c4ccccc4)CC3)C2=O)cc1` (centres undefined), in assay [2], the EC50 is > 50 µM (active).
Take `Oc1ncnc2c1c(-c1ccccc1)cn2-c1ccc(F)cc1`: the EC50 in the assay on HEK293 [8] and in the assay with HEK293 [9] was > 59.6 µM (inactive) in each case.
On to `Cn1c(=O)c2c(ncn2CCCNC2=CC(C)(C)CC(=O)C2)n(C)c1=O`, for which the 50% inhibitory concentration (IC50) against Estrogen receptor beta was > 50 µM (not active).
`O=c1cc(O)n(-c2ccc(F)cc2)c(=S)[nH]1`: at Protein Tat, the IC50 is > 100 µM (active).
Regarding `CC(C)CNC(CC(=O)O)c1ccccc1` (centres undefined), the 50% effective concentration (EC50) in [2] was > 50 µM (active).
In the case of `C[C@H](CO)N1C[C@H](C)[C@@H](CN(C)Cc2ccc(C(F)(F)F)cc2)OCCCC[C@H](C)Oc2ccc(NC(=O)Cc3ccccc3)cc2C1=O`, the results for the AC50 (on Paired box protein Pax-8; in [14]) were 9.66 µM (active) and 30.6 µM (active), respectively.
For `C/C(=C\C(=O)c1cccnc1)Nc1ccc(O)cc1`, the half-maximal inhibitory concentration (IC50) was 14.7 µM (active) in [15] and 26.2 µM (inconclusive) at Protein Tat.

In general, IC50 refers to the concentration that gives 50% inhibition. Broadly, the EC50 is the concentration that produces a half-maximal response. As a reminder, the AC50 is the concentration giving half of the maximal activity seen. As usually defined, the CC50 is the concentration at which the toxic effect on the cells reaches its halfway point.

(Values after ChEMBL document CHEMBL1201862, “PubChem BioAssay data set” (2004).)
